Laboratory results from EP0359505A1, “Dopamine-beta hydroxylase inhibitors” (SMITHKLINE BEECHAM CORPORATION, priority 1988, dated 1990).

What was measured:
DBH = target: T1, DBH (Homo sapiens, UniProt P09172); conditions: as reported by Runti et al.; cited from earlier work
T1 sequence (P09172 1-617): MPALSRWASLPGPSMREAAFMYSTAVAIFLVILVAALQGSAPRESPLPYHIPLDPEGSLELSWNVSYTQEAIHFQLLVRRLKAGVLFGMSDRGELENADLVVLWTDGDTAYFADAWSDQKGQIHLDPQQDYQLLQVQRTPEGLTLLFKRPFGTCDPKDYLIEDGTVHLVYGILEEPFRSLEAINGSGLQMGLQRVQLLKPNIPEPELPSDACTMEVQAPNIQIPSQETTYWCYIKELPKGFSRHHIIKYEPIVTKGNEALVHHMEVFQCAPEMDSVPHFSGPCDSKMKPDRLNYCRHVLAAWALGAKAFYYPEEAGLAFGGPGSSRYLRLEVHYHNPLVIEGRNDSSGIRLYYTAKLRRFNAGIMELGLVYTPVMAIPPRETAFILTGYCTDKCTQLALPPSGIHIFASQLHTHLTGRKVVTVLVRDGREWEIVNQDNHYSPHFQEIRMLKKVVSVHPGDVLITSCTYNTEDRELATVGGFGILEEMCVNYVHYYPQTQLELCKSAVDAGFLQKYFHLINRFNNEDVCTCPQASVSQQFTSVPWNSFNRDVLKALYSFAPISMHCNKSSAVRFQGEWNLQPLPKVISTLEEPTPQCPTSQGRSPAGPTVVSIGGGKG

[1] = see Teresawa et al.; cited from earlier work
[2] = tested on: spontaneously hypertensive rats; experiment: mean arterial blood pressure in spontaneously hypertensive rats, indwelling cannulae in the tail arteries; format: in vivo; conditions: 100 mg/kg orally
Experimental: Further, spontaneously hypertensive rats were treated with 3-mercapto-4-benzyl-5-(4-pyridyl)-1,2,4-triazole at a dose of 100 mg/kg orally and mean arterial blood pressure was monitored for 250 minutes using indwelling cannulae in the tail arteries. […] The maximal blood pressure reduction was approximately 25 mmHg.

phenylpicolinic acid
inhibitory activity relative to fusaric acid (DBH): twice the inhibitory activity of fusaric acid

CCCCc1ccc(C(=O)O)nc1 [Fusaric acid]
toxic effects [1]: hepatotoxic

Sc1nnc(-c2ccncc2)n1Cc1ccccc1 [3-Mercapto-4-benzyl-5-(4-pyridyl)-1,2,4-triazole]
blood pressure compared to vehicle-treated controls ([2]; between 80 and 240 minutes following treatment): significant blood pressure reductions
maximal blood pressure reduction ([2]; mean arterial blood pressure monitored for 250 minutes, compared to vehicle-treated controls): approximately 25 mmHg
